# From paper PMC8138767, “Intrinsically disordered substrates dictate SPOP subnuclear localization and ubiquitination activity” (The Journal of Biological Chemistry, 2021)
# “Also recorded” adds a separate entry of the source.
# Key:
# V5-SPOP in HeLa cells = assay: Immunofluorescence: V5-SPOP localization on coexpression of GFP–Pdx1 variants; assay type: cell-based; conditions: 24 h after transfection; for V5-SPOP localization, high Pdx1 expression: cells expressing GFP–Pdx1 at high levels (high GFP intensity); for V5-SPOP localization, low Pdx1 expression: cells expressing GFP–Pdx1 at low levels; for SPOP relocalization from nuclear speckles by Pdx1 variant: coexpressed with V5-SPOP, three biological replicates
# Method: (§1) HeLa cells were cultured under sterile conditions with Dulbecco’s modified Eagle’s medium (DMEM) (Gibco) supplemented with 10% fetal bovine serum and antibiotics/antimycotics (Gibco) (see Table S5 for key reagents and resources). T-REx-293 cells (cat. no. R710-07) were obtained from Invitrogen. Cells were grown on DMEM supplemented with 10% fetal bovine serum (Gibco), GlutaMax (Gibco), and Penicillin-Streptomycin (Gibco) and kept under selection by 5 μg/ml blasticidin. All cells were grown at 37 °C under 5% CO2 and were mycoplasma free at the time the experiments were performed.
# (§2) A plasmid encoding full-length human Pdx1 (amino acids 1-283) in pcDNA3.1 with a C-terminal GFP tag was purchased from GenScript. Full-length mouse SPOP (identical to the human sequence) with a V5 epitope tag in pcDNA3 was generated previously ([21]). The coding sequence for full-length mouse SPOP was inserted into pcDNA4/TO/myc (Invitrogen) for the T-REx system. pcDNA3-myc-CUL3 (cat no. 19893) and pcDNA–HA2–ROC1 (Rbx1) (cat no. 19897) were obtained from Addgene. pcDNA3 containing His-ubiquitin was a gift from Wenyi Wei.
# For immunofluorescence experiments, 0.5 × 10^6 cells were seeded on borosilicate glass coverslips in 6-well plates. After 24 h, cells were transfected with 400 ng of each plasmid using the Qiagen Effectene transfection reagent according to the manufacturer protocol. 24 h after transfection, the cells were treated with 4% paraformaldehyde in PBS for 30 min at RT. Cells were permeabilized with 0.1% Triton X-100 in PBS (PBST) for 5 min at 21 °C, followed by blocking in 0.5% BSA in PBST for 1 h at 21 °C. Signal from GFP-tagged proteins was observed directly. Cells were stained in primary antibodies diluted in 0.5% BSA in PBST overnight at 4 °C with mouse anti-SC-35 (1:300, ab11826; Abcam) and chicken anti-V5 (1:300, NB600-379; Novus Biologicals). Cells were incubated with secondary antibodies for 2 h at 21 °C. The secondary antibodies used were goat anti-mouse Alexa Fluor 647 (1:250, A-21235; Thermo Fisher) and goat anti-chicken Alexa Fluor 555 (1:250, A-21437; Thermo Fisher). Cells on coverslips were treated with 300 nM 4′,6-diamidino-2-phenylindole (DAPI) for 5 min at 21 °C. Coverslips were mounted on glass slides with ProLong Diamond mounting reagent (Thermo Fisher) and cured before imaging on a Zeiss LSM 880 Upright microscope. All images were analyzed and prepared in Fiji ([53]).
# All immunofluorescence data were averaged over three biological replicates. Cells not expressing both Pdx1 and SPOP were excluded from sampling. Raw images were collected in the Zeiss Zen software and then exported for viewing and analysis in Fiji. Nuclei of individual cells were designated manually in Fiji using the DAPI channel as a guide. The cells were binned based on whether SPOP was localized to nuclear speckles (puncta); cells with both diffuse and punctate SPOP signal were binned as “speckled.” The grayscale signal intensity of the green channel (Pdx1–GFP) was averaged over the DAPI-designated nuclear area. Next, the raw GFP intensity data points (one data point per cell analyzed) were plotted to generate a violin plot distribution. The average, minimum, and maximum values are shown by horizontal lines on the plot. Individual data points are also shown for rigor. […] All plotting and statistical tests were performed using in-house python scripts that can be found at https://github.com/idpemery/spop-pdx1.
# HeLa cells = assay: Immunofluorescence: subcellular localization / phase separation of the protein itself; assay type: cell-based; conditions: confocal fluorescence microscopy
# Method: as §1, §2
# For immunofluorescence experiments, 0.5 × 10^6 cells were seeded on borosilicate glass coverslips in 6-well plates. After 24 h, cells were transfected with 400 ng of each plasmid using the Qiagen Effectene transfection reagent according to the manufacturer protocol. 24 h after transfection, the cells were treated with 4% paraformaldehyde in PBS for 30 min at RT. Cells were permeabilized with 0.1% Triton X-100 in PBS (PBST) for 5 min at 21 °C, followed by blocking in 0.5% BSA in PBST for 1 h at 21 °C. Signal from GFP-tagged proteins was observed directly. […] All images were analyzed and prepared in Fiji ([53]).
# All immunofluorescence data were averaged over three biological replicates. […] Next, the raw GFP intensity data points (one data point per cell analyzed) were plotted to generate a violin plot distribution. […]
# [1] = tested on: SPOP-dependent turnover in T-REx-293 cells; assay: SPOP-dependent Pdx1 stability (Western blot); assay type: cell-based; conditions: no MG132, harvested 28 h after transfection, Western blot (Fig. S3D)
# Method: In a similar experiment, the cells were not treated with a proteasome inhibitor to observe the SPOP-dependent stability of each Pdx1 variant.
# T-REx-293 cells (Invitrogen) were seeded at a density of 0.8 × 10^6 per well in 6-well plates (tissue culture–treated plates (cat. no 3516, Corning)). After 24 h, cells were transfected with plasmids encoding Pdx1–GFP, SPOP–myc, His–ubiquitin, HA–Rbx1, and myc–CUL3 (as indicated) using the Qiagen Effectene transfection reagent. 24 h after transfection, the cells were treated with either dimethyl sulfoxide or 20 μM MG132 for 4 h before being harvested. Cells were lysed in buffer A (6 M guanidine HCl, 100 mM sodium phosphate, pH 8.0, and 10 mM imidazole). The lysates were sonicated, cleared, and incubated with Ni-NTA Agarose (Qiagen) for 3 h at RT, followed by 16 h at 4 °C. The beads were washed twice with buffer A and twice with a buffer composed of 1:3 buffer A:buffer T1 (buffer T1: 25 mM Tris HCl, pH 8.0, and 20 mM imidazole). The beads were finally transferred to buffer T1 and then boiled in the SDS-PAGE loading buffer containing 300 mM imidazole. Pdx1 stability assays were performed as described above, except that the cells were not treated with MG132. Cells expressing Pdx1–GFP or a variant were harvested 28 h after transfection, resuspended in 2x SDS-loading dye, and boiled for 5 min before SDS-PAGE analysis.
# All proteins were resolved by SDS-PAGE. Separated proteins were analyzed by immunoblotting using either the ECL or the ECL Select Western blotting detection reagents (Amersham). The antibodies used were mouse anti-Pdx1 used at 1:500 for pulldown or 1:2000 for inputs (clone 26771, MAB2419, R&D Systems), mouse anti-myc (1:250, clone 9E10, Santa Cruz Biotechnology), and rabbit anti-GAPDH (1:8000, clone EPR1689, Abcam). horseradish peroxidase-conjugated secondary antibodies were sourced from Jackson ImmunoResearch Laboratories and used at 1:20,000 dilution (goat anti-rabbit IgG, 111-035-003 and goat anti-mouse, 115-035-003).
# [2] = In vitro phase separation of Pdx1; assay type: physicochemical
substance,measurement,setting,value
Pdx1: full-length human Pdx1 (amino acids 1-283) with a C-terminal GFP tag,"V5-SPOP localization, high Pdx1 expression",V5-SPOP in HeLa cells,SPOP is diffuse
same,"V5-SPOP localization, high Pdx1 expression",V5-SPOP in HeLa cells; listed as WT–Pdx1,primarily diffuse V5-SPOP
same,"V5-SPOP localization, low Pdx1 expression",V5-SPOP in HeLa cells,SPOP localizes to nuclear speckles
same,"V5-SPOP localization, low Pdx1 expression",V5-SPOP in HeLa cells; listed as WT–Pdx1,V5-SPOP localizes to nuclear speckles
same,SPOP relocalization from nuclear speckles by Pdx1 variant,V5-SPOP in HeLa cells,relocalization of SPOP from nuclear speckles
same,SPOP relocalization from nuclear speckles by Pdx1 variant,V5-SPOP in HeLa cells; listed as GFP–Pdx1–WT,SPOP relocalized from nuclear speckles into the diffuse nucleoplasm
same,localization / phase separation in cells,HeLa cells,did not undergo observable partitioning to any nuclear body; also recorded: do not form phase-separated compartments in cells
same,localization / phase separation in cells,HeLa cells; listed as GFP–Pdx1,"does not localize to punctate structures in cells; also recorded: localizes to the nucleus (marked by DAPI, blue) and does not perturb the formation of or partition to nuclear speckles"
same,SPOP-dependent Pdx1 stability,[1]; listed as Pdx1-GFP-WT,almost entirely degraded
same,SPOP-dependent Pdx1 stability,[1]; listed as Pdx1–WT,readily degraded
same,in vitro phase separation,[2],do not observe in vitro phase separation
